Test results from US8680111B2 (Pfizer Inc., priority 2012, dated 2014).

Columns and labels:
[1] = target: T1, human recombinant L1196M ALK kinase domain (amino acids 1093-1411) (Homo sapiens, UniProt Q9UM73, L1196M); assay: L1196M mutant ALK enzyme assay (microfluidic mobility shift); format: biochemical; conditions: ATP 60 μM, 0.5 nM enzyme, competitive inhibition fit; read-out: L1196M ALK enzyme assay (Ki)
T1 construct: ALK kinase domain (amino acids 1093-1411); made in house

[2] = target: T2, human recombinant wild-type ALK kinase domain (amino acids 1093-1411) (Homo sapiens, UniProt Q9UM73); assay: Wild-type ALK enzyme assay (microfluidic mobility shift); format: biochemical; conditions: ATP 60 μM, competitive inhibition fit, read-out: WT ALK enzyme assay (Ki)
T2 construct: ALK kinase domain (amino acids 1093-1411); made in house
Procedure: The reactions were incubated for 1 h at room temperature, stopped by the addition of 0.1 M EDTA, pH 8, and the extent of reactions (˜15-20% conversion with no inhibitor) was determined after electrophoretic separation of the fluorescently labeled peptide substrate and phosphorylated product on an LabChip EZ Reader II (Caliper Life Sciences, Hopkinton, Mass.).

[3] = target: T3, WT EML4-ALK (NIH-3T3 EML4-ALK wt v1 cells) (Homo sapiens, UniProt Q9UM73); assay: Cellular phospho-ALK (Tyr1604) ELISA assay for WT EML4-ALK; format: cell-based; conditions: 1 hour, read-out: ELISA assay for WT EML4-ALK (IC50)
T3 construct: expressed in transfected cells; the other entry of the earlier key: EML4 (Q9HC35, Echinoderm microtubule-associated protein-like 4)
Procedure: (§1) Cellular Phospho-ALK (Tyr1604) ELISA Assay for EML4-ALK:
(§2) The cells were maintained at 37° C. in a 5% CO2 incubator in DMEM (Invitrogen, Carlsbad, Calif.) medium supplemented with 1% L-glutamine, 1% penicillin and streptomycin, 1 ug/ml puromycin and 10% new born calf serum (NCS) in T-75 flasks.
(§3) Cells were washed with PBS and re-suspended in DMEM medium supplemented with 0.5% NCS and 1% pen/strep and seeded into 96-well plates at density of 20,000 cells/well/100 μl and incubated in the incubator at 37° C. and 5% CO2. After 20 hours of incubation, 100 μl of assay media (DMEM) in presence of designated PF-compounds concentrations or controls (DMSO) were added into plates and incubated for 1 hour in the incubator. Media was then removed and lysis buffer, containing phosphatase inhibitors and phenylmethanesulfonyl fluoride (PMSF), was added to wells and shaken at 4° C. for 30 minutes to generate protein lysates.
(§4) A phospho-ALK (Tyr1604) rabbit antibody was coated onto the 96-well microplates. 50 μl of cell lysates were added to the antibody coated plate and incubated at room temperature for 2 hours. Following extensive washing with 0.1% Tween 20 in PBS to remove unbound materials, ALK mouse mAb was added to detect captured phospho-ALK (Tyr1604) and phospho-ALK fusion proteins. Anti-mouse IgG, HRP-linked antibody was then used to recognize the bound detection antibody. Finally, the chemiluminescent reagent was added and incubated for 10 minutes for signal development. The assay plates were read in the Envision plate reader in the luminescent mode. IC50 values were calculated by a concentration-response curve fitting using a four-parameter analytic method.

[4] = target: T4, L1196M EML4-ALK (NIH-3T3 EML4-ALK v1 L1196M cells) (Homo sapiens, UniProt Q9UM73, L1196M); assay: Cellular phospho-ALK (Tyr1604) ELISA assay for L1196M EML4-ALK; format: cell-based; conditions: NIH-3T3 EML4-ALK v1 L1196M cells, 1 hour, phospho-ALK (Tyr1604); read-out: ELISA assay for L1196M EML4-ALK (IC50)
T4 construct: expressed in transfected cells; the other entry of the earlier key: EML4 (Q9HC35, Echinoderm microtubule-associated protein-like 4)
Procedure: as §1, §2, §3, §4

Ki [1] [nM]	Ki [2] [nM]	IC50 [3] [nM]	IC50 [4] [nM]	Compound
821	146	2110	> 10000	7-amino-3-tert-butyl-1,10,16-trimethyl-16,17-dihydro-1H-8,4-(metheno)-pyrazolo[4,3-g]pyrido[2,3-l][1,4,10]oxadiazacyclotetradecin-15(10H)-one [Example 120]
7.4	2.1	56.2	873	7-amino-12-fluoro-3-methoxy-1,16,17-trimethyl-16,17-dihydro-1H-8,4-(azeno)pyrazolo[4,3-h][2,5,11]benzoxadiazacyclotetradecin-15(10H)-one [Example 124]
0.49	0.11	2.3	49.1	7-amino-12-fluoro-3-methoxy-1,16,17-trimethyl-16,17-dihydro-1H-8,4-(azeno)pyrazolo[4,3-h][2,5,11]benzoxadiazacyclotetradecin-15(10H)-one [Example 125]
1.9	0.35	10.4	169	12-fluoro-1,14-dimethyl-1,4,5,6,7,8-hexahydro-14H-16,20-(metheno)-pyrazolo[4,3-g][1,14,11]benzodioxazacycloheptadecin-17-amine [Example 95]
1.06	0.2	0.35	9.29	CCN1Cc2c(c(C)nn2C)-c2cnc(N)c(c2)OC(C)c2cc(F)ccc2C1=O (single isomer, unassigned) [Example 9, 7-amino-16-ethyl-12-fluoro-1,3,10-trimethyl-16,17-dihydro-1H-8,4-(metheno)pyrazolo[4,3-h][2,5,11]benzoxadiazacyclotetradecin-15(10H)-one]
1.1	< 0.2	1.21	27.7	Cc1nn(C)c2c1-c1cnc(N)c(c1)OC(C)c1cc(F)ccc1C(=O)N(C1CC1)C2 (single isomer, unassigned) [Example 11, 7-amino-16-cyclopropyl-12-fluoro-1,3,10-trimethyl-16,17-dihydro-1H-8,4-(metheno)pyrazolo[4,3-h][2,5,11]benzoxadiazacyclotetradecin-15(10H)-one]
29	10	34.9	700	Cc1nn(C)c2c1-c1cnc(N)c(c1)OC(C)c1cc(F)ccc1C(=O)N(C1CC1)C2 (single isomer, unassigned) [Example 12, 7-amino-16-cyclopropyl-12-fluoro-1,3,10-trimethyl-16,17-dihydro-1H-8,4-(metheno)pyrazolo[4,3-h][2,5,11]benzoxadiazacyclotetradecin-15(10H)-one]
0.9	< 0.2	4.89	110	COc1c2c(nn1C)CN(C)C(=O)c1ccc(F)cc1C(C)Oc1cc-2cnc1N (single isomer, unassigned) [Example 19, 7-amino-12-fluoro-3-methoxy-2,10,16-trimethyl-16,17-dihydro-2H-8,4-(metheno)pyrazolo[4,3-h][2,5,11]benzoxadiazacyclotetradecin-15(10H)-one]
0.29	< 0.2	0.77	10.1	CCC1Oc2cc(cnc2N)-c2c(OC)nn(C)c2CN(C)C(=O)c2ccc(F)cc21 (single isomer, unassigned) [Example 23, 7-amino-10-ethyl-12-fluoro-3-methoxy-1,16-dimethyl-16,17-dihydro-1H-8,4-(metheno)pyrazolo[4,3-h][2,5,11]benzoxadiazacyclotetradecin-15(10H)-one]
0.56	< 0.2	1.35	21.9	COc1nn(C)c2c1-c1cnc(N)c(c1)OC(C1CC1)c1cc(F)ccc1C(=O)N(C)C2 (single isomer, unassigned) [Example 25, 7-amino-10-cyclopropyl-12-fluoro-3-methoxy-1,16-dimethyl-16,17-dihydro-1H-8,4-(metheno)pyrazolo[4,3-h][2,5,11]benzoxadiazacyclotetradecin-15(10H)-one]
15	3.3	50.5	511	COc1nn(C)c2c1-c1cnc(N)c(c1)OC(C1CC1)c1cc(F)ccc1C(=O)N(C)C2 (single isomer, unassigned) [Example 26, 7-amino-10-cyclopropyl-12-fluoro-3-methoxy-1,16-dimethyl-16,17-dihydro-1H-8,4-(metheno)pyrazolo[4,3-h][2,5,11]benzoxadiazacyclotetradecin-15(10H)-one]
0.67	< 0.2	2.64	67.2	COc1nccc2c1-c1cnc(N)c(n1)OC(C)c1cc(F)ccc1C(=O)N(C)C2 (single isomer, unassigned) [Example 30, 8-amino-13-fluoro-4-methoxy-11,17-dimethyl-17,18-dihydro-9,5-(azeno)pyrido[3,4-h][2,5,11]benzoxadiazacyclotetradecin-16(11H)-one]
15.8	5.96	53.2	660	COc1nccc2c1-c1cnc(N)c(n1)OC(C)c1cc(F)ccc1C(=O)N(C)C2 (single isomer, unassigned) [Example 31, 8-amino-13-fluoro-4-methoxy-11,17-dimethyl-17,18-dihydro-9,5-(azeno)pyrido[3,4-h][2,5,11]benzoxadiazacyclotetradecin-16(11H)-one]
14		155	2680	CN1Cc2ccccc2-c2cnc(N)c(c2)OCc2cc(F)ccc2C1=O [Example 7, 8-amino-3-fluoro-17-methyl-16,17-dihydro-7,11-(metheno)dibenzo[g,l]-[1,4,10]oxadiazacyclotetradecin-18(5H)-one]
70	12			Cc1nn(S(=O)(=O)N(C)C)c2c1-c1cnc(N)c(c1)OCc1cc(F)ccc1OCCC2 [Example 44, 7-amino-12-fluoro-N,N,3-trimethyl-17,18-dihydro-10H-8,4-(metheno)-pyrazolo[3,4-e][1,12,9]benzodioxazacyclopentadecine-1(16H)-sulfonamide]
3.6	0.29		208	CCc1noc2c1-c1cnc(N)c(n1)O[C@H](C)c1cc(F)ccc1C(=O)N(C)C2 [Example 47, (10R)-7-amino-3-ethyl-12-fluoro-10,16-dimethyl-16,17-dihydro-8,4-(azeno)[1,2]oxazolo[4,5-h][2,5,11]benzoxadiazacyclotetradecin-15(10H)-one]
> 1500	411			CC1Oc2cc(cnc2N)-c2c(C(C)(C)C)nn(C)c2CN(C)C(=O)c2ncccc21 (centres unmarked) [Example 67, 7-amino-3-tert-butyl-1,10,16-trimethyl-16,17-dihydro-1H-8,4-(metheno)pyrazolo[4,3-g]pyrido[2,3-l][1,4,10]oxadiazacyclotetradecin-15(10H)-one]
698	930			CN1Cc2nn(C)c(C#N)c2-c2cnc(N)c(n2)O[C@@H](CF)c2cc(F)ccc2C1=O [Example 94, (10R)-7-amino-12-fluoro-10-(fluoromethyl)-2,16-dimethyl-15-oxo-10,15,16,17-tetrahydro-2H-8,4-(azeno)pyrazolo[4,3-h][2,5,11]benzoxadiazacyclotetradecine-3-carbonitrile]
131	9.1			C[C@H]1Oc2cc(cnc2N)-c2c(cnc3cccnc23)CN(C)C(=O)c2ccc(F)cc21 [Example 103, (11R)-8-amino-13-fluoro-11,17-dimethyl-17,18-dihydro-9,5-(metheno)-[1,5]naphthyridino[4,3-h][2,5,11]benzoxadiazacyclotetradecin-16(11H)-one]
57.5	8.4			CC1Oc2nc(cnc2N)-c2c(nn(C)c2C#N)COCc2ccc(F)cc21 (centres unmarked) [Example 104, 7-amino-12-fluoro-2,10-dimethyl-2,10,15,17-tetrahydro-8,4-(azeno)pyrazolo[4,3-h][2,11,5]benzodioxazacyclotetradecine-3-carbonitrile]
179	88.5			Cn1nc2c(c1C#N)-c1cnc(N)c(n1)OCc1cc(F)ccc1COC2 [Example 107, 7-amino-12-fluoro-2-methyl-2,10,15,17-tetrahydro-8,4-(azeno)pyrazolo[4,3-h][2,11,5]benzodioxazacyclotetradecine-3-carbonitrile]
> 1500	353			CC1Oc2cc(cnc2N)-c2c(cnn2C)CCCCCOc2ccc(F)cc21 (centres unmarked) [Example 129, 12-fluoro-1,14-dimethyl-1,4,5,6,7,8-hexahydro-14H-16,20-(metheno)-pyrazolo-[4,3-g][1,14,11]benzodioxazacycloheptadecin-17-amine]
20.5	3			CC(C)Cn1nnc2c1-c1cnc(N)c(c1)O[C@H](C)c1cc(F)ccc1C(=O)N(C)C2 [Example 134, (10R)-7-amino-12-fluoro-10,16-dimethyl-3-(2-methylpropyl)-16,17-dihydro-3H-8,4-(metheno)[1,2,3]triazolo[4,5-h][2,5,11]benzoxadiazacyclotetradecin-15(10H)-one]
72.4	6.1		2280	C[C@H]1Oc2cc(cnc2N)-c2c(nnn2C2CC2)CN(C)C(=O)c2ccc(F)cc21 [Example 137, (10R)-7-amino-3-cyclopropyl-12-fluoro-10,16-dimethyl-16,17-dihydro-3H-8,4-(metheno)[1,2,3]triazolo[4,5-h][2,5,11]benzoxadiazacyclotetradecin-15(10H)-one]
